Laboratory results reported in US6040335A, “Therapeutics for thrombocytopenia” (Suntory Limited, priority 1995, dated 2000).

What was measured:
C57BL/6 mice = test: Toxicity Test (intravenous, deaths); format: in vivo; settings: 5 mg/kg intravenous
Mouse Platelet = Mouse Platelet Increasing Action (platelet count, electrical impedance method); format: in vivo, C57BL/6 mice; settings: every 24 hr
Method: The measurement of platelet increasing activity can be implemented by the method described in Ishibashi, T. et al, Blood, 74(4):1241-1244, 1989 or modifications thereof. For example, an animal for platelet measurement such as mouse (e.g. C57BL/6 mouse), rat, dog or monkey is administered intraperitoneally with a test drug as dissolved in ethanolic physiological saline or dimethyl sulfoxide (hereunder sometimes referred to as DMSO) at a suitable concentration. The frequency of administration is usually once or twice a day for 5-10 continuous days; a blood sample is taken from the orbital venous plexus several hours after the final administration and the platelet count is determined. Administration may be performed by any methods including oral, intravenous, intramuscular and subcutaneous routes. The interval of administrations, their frequency and the number of days on which the administration is made are also variable with the drug under test. Platelet count can be determined by an electrical impedance method using a multi-channel automatic platelet counter (e.g., COULTER COUNTER Model JT of Coulter Corporation).
C57BL/6 mice (male, 7-week old) were administered intraperitoneally with the following compounds of the invention in 1% DMSO physiological saline or with 1% DMSO physiological saline alone (control) at 24-hr intervals for 5, 7 or 10 continuous days. Blood samples were collected 72-hr after the final administration in the case of 5-day administration, and 4-hr after the final administration in the case of 7 or 10-day administration, and the platelet count was determined by an electrical impedance method.

[1] = 0.03 mg/kg i.p., 5 days, blood 72 hr after final administration
[2] = 0.1 mg/kg i.p., 5 days, blood 72 hr after final administration
[3] = 1.0 mg/kg i.p., 5 days, blood 72 hr after final administration

SMILES	cases of death (C57BL/6 mice)	Platelet count (Mean ± S.E.) (Mouse Platelet; 0.03 mg/kg i.p., 7 days, blood 4 hr after final administration, control 1070 ± 152)	Platelet count (Mean ± S.E.) (Mouse Platelet; 0.1 mg/kg i.p., 7 days, blood 4 hr after final administration, control 1070 ± 152)	Platelet count (Mean ± S.E.) (Mouse Platelet; 0.1 mg/kg i.p., 10 days, blood 4 hr after final administration, control 985 ± 130)	Platelet count (Mean ± S.E.) (Mouse Platelet; 1.0 mg/kg i.p., 7 days, blood 4 hr after final administration, control 1070 ± 152)	Platelet count (Mean ± S.E.) (Mouse Platelet; 1.0 mg/kg i.p., 10 days, blood 4 hr after final administration, control 985 ± 130)	Platelet count (Mean ± S.E.) (Mouse Platelet; [1])	Platelet count (Mean ± S.E.) (Mouse Platelet; [2])	Platelet count (Mean ± S.E.) (Mouse Platelet; [3])
CCC1C=CC(=O)OC1/C=C/C(O)(CCN(C)C)C(CC(O)/C=C\C=C/C1CCCC(O)C1)OP(=O)(O)O (centres unmarked) [Example 3, 6-[3,6-Dihydroxy-3-(2-dimethylaminoethyl)-10-(3-hydroxycyclohexyl)-4-(phosphonoxy)-1,7,9-decatrienyl]-5,6-dihydro-5-ethyl-2H-pyran-2-one]	no cases of death	1417 ± 159 × 10^3 /μl	1486 ± 314 × 10^3 /μl	1280 ± 260 × 10^3 /μl	1532 ± 137 × 10^3 /μl	1356 ± 156 × 10^3 /μl			
CCC1C=CC(=O)OC1/C=C/C(O)(CCN(CC)CC)C(CC(O)/C=C\C=C/C1CCCC(O)C1)OP(=O)(O)O (centres unmarked) [Example 7, 6-[3-(2-Diethylaminoethyl)-3,6-dihydroxy-10-(3-hydroxycyclohexyl)-4-(phosphonoxy)-1,7,9-decatrienyl]-5,6-dihydro-5-ethyl-2H-pyran-2-one]							1373 ± 76 × 10^3 /μl	1686 ± 226 × 10^3 /μl	1408 ± 427 × 10^3 /μl
CCC1C=CC(=O)OC1/C=C/C(O)(CCNC(C)C)C(CC(O)/C=C\C=C/C1CCCC(O)C1)OP(=O)(O)O (centres unmarked) [Example 9, 6-[3,6-Dihydroxy-10-(3-hydroxycyclohexyl)-3-(2-isopropylaminoethyl)-4-(phosphonoxy)-1,7,9-decatrienyl]-5,6-dihydro-5-ethyl-2H-pyran-2-one]							1433 ± 125 × 10^3 /μl	1818 ± 291 × 10^3 /μl	1465 ± 244 × 10^3 /μl
CCCCCNCCC(O)(/C=C/C1OC(=O)C=CC1CC)C(CC(O)/C=C\C=C/C1CCCC(O)C1)OP(=O)(O)O (centres unmarked) [Example 12, 6-[3,6-Dihydroxy-10-(3-hydroxycyclohexyl)-3-(2-pentylaminoethyl)-4-(phosphonoxy)-1,7,9-decatrienyl]-5,6-dihydro-5-ethyl-2H-pyran-2-one]							1263 ± 99 × 10^3 /μl	1623 ± 192 × 10^3 /μl	1338 ± 236 × 10^3 /μl
CCC1C=CC(=O)OC1/C=C/C(O)(CCNC1CCCC1)C(CC(O)/C=C\C=C/C1CCCC(O)C1)OP(=O)(O)O (centres unmarked) [Example 13, 6-[3-(2-Cyclopentylaminoethyl)-3,6-dihydroxy-10-(3-hydroxycyclohexyl)-4-(phosphonoxy)-1,7,9-decatrienyl]-5,6-dihydro-5-ethyl-2H-pyran-2-one]							1490 ± 108 × 10^3 /μl	1765 ± 291 × 10^3 /μl	1313 ± 293 × 10^3 /μl
CCC1C=CC(=O)OC1/C=C/C(O)(CCN(CCO)CCO)C(CC(O)/C=C\C=C/C1CCCC(O)C1)OP(=O)(O)O (centres unmarked) [Example 20, 6-[3-(2-Diethanolaminoethyl)-3,6-dihydroxy-10-(3-hydroxycyclohexyl)-4-(phosphonoxy)-1,7,9-decatrienyl]-5,6-dihydro-5-ethyl-2H-pyran-2-one]							1154 ± 138 × 10^3 /μl	1325 ± 104 × 10^3 /μl	1498 ± 192 × 10^3 /μl
CCC1C=CC(=O)OC1/C=C/C(O)(CC[N+](C)(C)C)C(CC(O)/C=C\C=C/C1CCCC(O)C1)OP(=O)(O)O (centres unmarked) [Example 23, 6-[3,6-Dihydroxy-10-(3-hydroxycyclohexyl)-4-(phosphonoxy)-3-(2-trimethylammoniumethyl)-1,7,9-decatrienyl]-5,6-dihydro-5-ethyl-2H-pyran-2-one]								1545 ± 294 × 10^3 /μl	1513 ± 425 × 10^3 /μl
C=CCN(CC=C)CCC(O)(/C=C/C1OC(=O)C=CC1CC)C(CC(O)/C=C\C=C/C1CCCC(O)C1)OP(=O)(O)O (centres unmarked) [Example 25, 6-[3-(2-Diallylaminoethyl)-3,6-dihydroxy-10-(3-hydroxycyclohexyl)-4-(phosphonoxy)-1,7,9-decatrienyl]-5,6-dihydro-5-ethyl-2H-pyran-2-one]							1074 ± 182 × 10^3 /μl	1506 ± 209 × 10^3 /μl	1133 ± 170 × 10^3 /μl
